One compound from article PMC4725312 (Journal of biomolecular screening, 2010) can be followed below.

The experiment addresses TRPM7 (Mus musculus, UniProt Q923J1). Format: cell-based.

Chain of TRPM7 (Q923J1 whole entry): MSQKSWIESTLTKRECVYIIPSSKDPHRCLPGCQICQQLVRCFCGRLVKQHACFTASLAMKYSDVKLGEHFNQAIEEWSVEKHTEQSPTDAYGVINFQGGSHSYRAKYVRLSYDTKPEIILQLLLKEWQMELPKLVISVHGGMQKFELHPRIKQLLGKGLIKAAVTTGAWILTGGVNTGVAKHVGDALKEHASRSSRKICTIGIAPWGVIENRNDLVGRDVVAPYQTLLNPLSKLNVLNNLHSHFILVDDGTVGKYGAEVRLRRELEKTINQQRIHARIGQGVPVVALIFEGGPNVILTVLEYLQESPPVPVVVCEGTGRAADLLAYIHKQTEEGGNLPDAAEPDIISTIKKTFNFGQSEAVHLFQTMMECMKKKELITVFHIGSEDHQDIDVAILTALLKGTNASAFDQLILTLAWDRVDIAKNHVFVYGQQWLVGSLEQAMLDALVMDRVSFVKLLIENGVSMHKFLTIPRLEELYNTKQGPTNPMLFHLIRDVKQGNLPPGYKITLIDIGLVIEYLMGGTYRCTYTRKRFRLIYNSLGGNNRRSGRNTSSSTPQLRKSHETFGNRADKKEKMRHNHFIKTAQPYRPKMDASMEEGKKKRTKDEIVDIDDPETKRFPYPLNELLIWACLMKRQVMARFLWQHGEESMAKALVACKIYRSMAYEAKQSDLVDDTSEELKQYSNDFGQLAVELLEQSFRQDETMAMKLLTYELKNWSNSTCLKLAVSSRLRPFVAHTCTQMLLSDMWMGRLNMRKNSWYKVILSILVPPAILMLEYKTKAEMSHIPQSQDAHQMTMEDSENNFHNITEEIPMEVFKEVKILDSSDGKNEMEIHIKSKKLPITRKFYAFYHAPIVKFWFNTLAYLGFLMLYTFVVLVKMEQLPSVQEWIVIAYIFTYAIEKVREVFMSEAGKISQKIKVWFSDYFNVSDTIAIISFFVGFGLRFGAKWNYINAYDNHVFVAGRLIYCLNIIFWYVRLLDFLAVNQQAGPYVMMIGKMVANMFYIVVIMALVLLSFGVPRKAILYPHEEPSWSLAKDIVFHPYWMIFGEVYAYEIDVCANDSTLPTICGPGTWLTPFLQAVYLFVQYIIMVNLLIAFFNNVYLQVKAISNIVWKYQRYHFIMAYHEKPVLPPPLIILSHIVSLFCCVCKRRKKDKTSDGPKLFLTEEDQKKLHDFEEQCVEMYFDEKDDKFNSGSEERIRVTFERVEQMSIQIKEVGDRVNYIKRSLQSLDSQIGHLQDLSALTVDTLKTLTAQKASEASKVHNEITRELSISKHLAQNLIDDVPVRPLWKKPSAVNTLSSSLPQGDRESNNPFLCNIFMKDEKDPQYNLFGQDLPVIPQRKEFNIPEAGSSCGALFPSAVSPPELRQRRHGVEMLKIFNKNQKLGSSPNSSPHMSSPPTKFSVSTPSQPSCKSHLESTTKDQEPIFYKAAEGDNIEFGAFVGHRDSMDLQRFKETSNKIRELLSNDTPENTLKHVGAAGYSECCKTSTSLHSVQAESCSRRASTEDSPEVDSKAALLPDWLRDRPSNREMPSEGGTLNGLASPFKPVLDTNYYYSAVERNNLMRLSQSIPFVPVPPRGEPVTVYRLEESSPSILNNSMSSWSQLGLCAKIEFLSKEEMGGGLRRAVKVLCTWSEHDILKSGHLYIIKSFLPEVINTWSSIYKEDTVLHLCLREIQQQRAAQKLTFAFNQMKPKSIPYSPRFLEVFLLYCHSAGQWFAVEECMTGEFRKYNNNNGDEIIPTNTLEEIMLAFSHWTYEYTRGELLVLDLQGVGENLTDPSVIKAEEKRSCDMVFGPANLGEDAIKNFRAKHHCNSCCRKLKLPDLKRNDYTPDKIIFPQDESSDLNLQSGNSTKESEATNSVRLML

As for `NCCOB(c1ccccc1)c1ccccc1` [2-APB], the IC50 – broadly, the concentration that inhibits the measured activity by half – was 30 µM.
